EP2179734B1, “Benzoxazine and dihydroquinazoline derivatives for use in the treatment of alcohol withdrawal syndrome” (Biocodex, priority 2008, dated 2010)

Experiments:
souris sevrée [1] = experiment: Handling-induced convulsion score during alcohol withdrawal (Watson and Little 1995); assay type: in vivo; conditions: NMRI mice, 4 to 6 h after removal
Description: (§1) Des souris de souche NMRI (élevage Janvier), âgées de 5 à 6 semaines et de poids compris entre 25 et 30 g sont utilisées après 10 jours d'habituation aux conditions du laboratoire. Les conditions d'hébergement sont les suivantes : t° ambiante = 22 ± 2 °C; hygrométrie relative = 50 ± 20 %; cycle lumière/obscurité : 12 h/12 h (lumière de 7h00 à 19h00); nourriture A04 (SAFE, France) et boisson (eau du robinet) à volonté; dix animaux groupés par cage de polypropylène (435x435x194 mm).
(§2) Dans un premier temps, les animaux ont été familiarisés avec la nourriture liquide apportée sous un volume quotidien de 40 ml durant 7 à 10 jours. Celle-ci est constituée de lait chocolaté (Candia, France) auquel sont ajoutés 5 g/l d'un mélange de sels minéraux (ICN, France) et 3 g/l d'un mélange de vitamines (ICN, France).
(§3) Dans un deuxième temps, les animaux alcoolisés ont reçu la nourriture liquide contenant 3 % (p/v) d'éthanol (95°) durant 8 jours puis 4 % (p/v) d'éthanol (95°) durant 7 jours, tandis que les animaux témoins (non alcoolisés) ont eu accès à une nourriture avec l'équivalent calorique de dextrose (D-glucose, VWR, France).
(§4) Aucune nourriture solide, ni eau de boisson n'ont été proposées aux animaux durant cette période d'alcoolisation. Au terme des 15 jours d'alcoolisation (J15), le biberon avec l'alcool a été remplacé par un biberon de nourriture identique à celui des animaux témoins.
Cette mesure est effectuée selon le protocole décrit par Watson and Little (1995) J Pharmacol Exp Ther 272: 876-884. Brièvement, l'animal est soulevé par la queue et maintenu durant 30 secondes à 30 cm d'une lampe pourvue d'une ampoule de 60W puis subit une légère rotation (360°). Le comportement de chaque animal est évalué selon une échelle de cotation de 0 à 5, selon des critères figurant dans le Tableau 1 : Tableau 1 : Différents niveaux de cotation du comportement chez la souris selon Watson et Little (1995)
La mesure est réalisée avant l'expérience (conditions basales), 24 heures avant le retrait de l'éthanol puis le jour du retrait toutes les heures de 1 à 7 heures après le retrait du biberon de nourriture (7h00 - 8h00 le matin).
L'étifoxine (6.25 - 100 mg/kg) et le diazépam (1 et 4 mg/kg) sont administrés par voie intrapéritonéale (ip) 3h30 après le retrait du biberon. Une étude préliminaire a montré que les signes de sevrage étaient présents à ce temps (score ≥ 2). Les animaux contrôles reçoivent un volume équivalent de liquide véhicule.
Un score (de 0 à 5) est attribué pour chaque animal à chaque temps (de 1 à 7 h).
L'étifoxine (lots 219 et 350; Biocodex - France) est mis en suspension dans une solution saline (NaCl-0.9 %; p/v) de tween 80 à 1% (v/v) tandis que le diazépam (Valium®) est solubilisé dans une solution saline. Le volume d'administration par voie ip est de 0.1 ml/10 g. […]

souris sevrée [2] = experiment: Anxiety level during alcohol withdrawal: two-compartment (light/dark) box test (Crawley and Goodwin 1980, modified); assay type: in vivo; conditions: 8 h after ethanol removal, 5 min test, withdrawn NMRI mice
Description: as §1, §2, §3, §4
Le protocole décrit par Crawley and Goodwin (1980) Pharmacol Biochem Behav 1980; 13: 167-170 et légèrement modifié a été utilisé. Cette épreuve, reposant sur les tendances agoraphobiques et photophobiques des rongeurs, est classiquement utilisée pour mesurer leur niveau de peur ou d'anxiété.
Le dispositif est constitué d'une boîte en plexiglas à 2 compartiments (OSYS, Orga System; France) : l'un (18 x 27 x 30 cm) sombre et pourvu d'un couvercle, est éclairé à l'aide d'une lampe rouge (60W; 4 lux) tandis que le plus grand (27 x 27 x 30 cm), peint en blanc, est éclairé à l'aide d'une lampe de 60 W (400 lux). Une entrée (7.5 x 7.5 cm) située au centre de la cloison qui sépare les 2 compartiments, relie les 2 compartiments. Ceux-ci, équipés de cellules photoélectriques infra-rouges (4 dans le compartiment clair et 3 dans le compartiment sombre) reliées à un compteur digital, permettent la détection et la mesure des déplacements de l'animal. Celui-ci est déposé au centre du compartiment sombre face à l'ouverture. La latence d'entrée (en sec.) dans le compartiment clair, le nombre de déplacements dans le compartiment clair et le nombre de transition entre les 2 compartiments sombre et clair sont relevés au terme d'une épreuve de 5 min. La boîte est nettoyée avec de l'eau alcoolisée (10 %; v/v) pour éliminer toute trace odorante entre chaque passage. L'épreuve est réalisée 8 h après le retrait de la nourriture alcoolisée. Ce délai correspond au temps optimal pour la mesure du niveau d'anxiété chez l'animal soumis au sevrage alcoolique (Watson et Little (1994) Psychopharmacology (Berl) 114: 329-336).
L'étifoxine (6.25 - 50 mg/kg) ou le diazépam (1 mg/kg) est administré par voie ip 30 min avant l'épreuve. Les animaux contrôles reçoivent un volume équivalent de liquide véhicule.
L'étifoxine (lots 219 et 350; Biocodex - France) est mis en suspension dans une solution saline (NaCl-0.9 %; p/v) de tween 80 à 1% (v/v) tandis que le diazépam (Valium®) est solubilisé dans une solution saline. Le volume d'administration par voie ip est de 0.1 ml/10 g.
Les résultats sont exprimés par la valeur moyenne ± erreur standard à la moyenne (esm). Concernant la mesure de l'intensité des convulsions induites par la manipulation, l'analyse de variance (ANOVA) à 2 facteurs (temps x traitement) avec mesures répétées sur le facteur temps suivie de manière post-hoc par le test de Student Newman-Keuls, a été utilisée pour localiser les différences entre les groupes expérimentaux. […]

| SMILES | score de convulsions (souris sevrée [1]; mainly at 4 mg/kg ip 3h30 after ethanol removal) | latence d'entrée dans le compartiment clair (souris sevrée [2]; 1 mg/kg ip 30 min before test) | nombre de déplacements dans le compartiment clair (souris sevrée [2]; 1 mg/kg ip 30 min before test) | nombre de transitions entre les 2 compartiments (souris sevrée [2]; 1 mg/kg ip 30 min before test) | score de convulsions (souris sevrée [1]; 12.5 mg/kg ip 3h30 after ethanol removal, vs alcoholised controls, p<0.05) | score de convulsions (souris sevrée [1]; 25 mg/kg ip 3h30 after ethanol removal, vs alcoholised controls, p<0.05) | score de convulsions (souris sevrée [1]; 100 mg/kg ip 3h30 after ethanol removal, vs alcoholised controls, p<0.05) | latence d'entrée dans le compartiment clair (souris sevrée [2]; 50 mg/kg ip 30 min before test) | nombre de déplacements dans le compartiment clair (souris sevrée [2]; 50 mg/kg ip 30 min before test) | nombre de transitions entre les 2 compartiments (souris sevrée [2]; 50 mg/kg ip 30 min before test) |
| --- | --- | --- | --- | --- | --- | --- | --- | --- | --- | --- |
| CN1C(=O)CN=C(c2ccccc2)c2cc(Cl)ccc21 [diazépam] | produit le même effet | atténue également de manière significative les effets du retrait de l'éthanol | atténue également de manière significative les effets du retrait de l'éthanol | atténue également de manière significative les effets du retrait de l'éthanol | – | – | – | – | – | – |
| CCNC1=Nc2ccc(Cl)cc2C(C)(c2ccccc2)O1 (stereo not shown) [étifoxine, chlorhydratede 6-chloro-2-éthylamino-4-méthyl-4-phényl-4H-[3,1]benzoxazine] | – | – | – | – | réduit significativement le score de convulsions | réduit significativement le score de convulsions | réduit significativement le score de convulsions | s'oppose aux effets du sevrage à l'éthanol sur ces 3 paramètres avec un effet statistiquement significatif | s'oppose aux effets du sevrage à l'éthanol sur ces 3 paramètres avec un effet statistiquement significatif | s'oppose aux effets du sevrage à l'éthanol sur ces 3 paramètres avec un effet statistiquement significatif |
